Assays:
Assay in all cases: IA-DTB cysteine engagement
Format in all cases: binding
Conditions in all cases: 22Rv1 cells, 20 μM probe, 1 h, relative to DMSO
ABCA2_C2385 = molecular target: T1, ABCA2_C2385 (Homo sapiens, UniProt Q9BZC7)
T1 construct: endogenous in cells; host or cells: 22Rv1
Procedure, shortened: (§1)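 In-situ probe treatment of cells; lysate 2 mg/mL, IA-DTB 1 h RT; MeOH/CHCl3 precipitation, DTT/iodoacetamide, trypsin; streptavidin enrichment; TMT labeling, high-pH fractionation. Ratio = TMT reporter intensity / mean DMSO channels, median-normalized.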

CYP27B1_C163 = molecular target: T2, CYP27B1_C163 (Homo sapiens, UniProt O15528)
T2 construct: endogenous in cells; host or cells: 22Rv1
T2 sequence (O15528 1-508): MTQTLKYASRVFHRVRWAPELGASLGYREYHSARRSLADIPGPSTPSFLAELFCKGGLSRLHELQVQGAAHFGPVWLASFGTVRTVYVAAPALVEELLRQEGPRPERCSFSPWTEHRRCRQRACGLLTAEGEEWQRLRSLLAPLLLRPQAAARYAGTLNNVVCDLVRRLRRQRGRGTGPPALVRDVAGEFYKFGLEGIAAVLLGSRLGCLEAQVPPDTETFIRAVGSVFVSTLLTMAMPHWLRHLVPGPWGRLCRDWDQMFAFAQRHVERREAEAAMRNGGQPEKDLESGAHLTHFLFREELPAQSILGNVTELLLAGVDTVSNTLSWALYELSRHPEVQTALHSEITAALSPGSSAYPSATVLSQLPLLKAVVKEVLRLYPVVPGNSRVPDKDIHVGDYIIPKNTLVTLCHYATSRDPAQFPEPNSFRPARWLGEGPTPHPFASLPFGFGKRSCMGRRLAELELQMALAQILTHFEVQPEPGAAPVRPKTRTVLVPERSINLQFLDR
Procedure, shortened: as §1

DCUN1D4_C219 = molecular target: T3, DCUN1D4_C219 (Homo sapiens, UniProt Q92564)
T3 construct: endogenous in cells; host or cells: 22Rv1
T3 sequence (Q92564 1-292): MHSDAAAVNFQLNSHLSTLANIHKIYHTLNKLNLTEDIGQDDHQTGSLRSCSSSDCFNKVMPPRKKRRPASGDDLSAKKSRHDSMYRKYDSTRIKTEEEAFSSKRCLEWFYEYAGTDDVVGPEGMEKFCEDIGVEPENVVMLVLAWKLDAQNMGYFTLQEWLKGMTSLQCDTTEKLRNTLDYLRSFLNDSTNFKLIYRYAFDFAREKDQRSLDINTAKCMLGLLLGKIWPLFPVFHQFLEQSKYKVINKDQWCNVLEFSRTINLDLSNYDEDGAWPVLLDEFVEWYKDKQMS
Procedure, shortened: as §1

PDE3B_C311 = molecular target: T4, PDE3B_C311 (Homo sapiens, UniProt Q13370)
T4 construct: endogenous in cells; host or cells: 22Rv1
Procedure, shortened: as §1

SLC25A16_C311 = molecular target: T5, SLC25A16_C311 (Homo sapiens, UniProt P16260)
T5 construct: endogenous in cells; host or cells: 22Rv1
T5 sequence (P16260 1-332): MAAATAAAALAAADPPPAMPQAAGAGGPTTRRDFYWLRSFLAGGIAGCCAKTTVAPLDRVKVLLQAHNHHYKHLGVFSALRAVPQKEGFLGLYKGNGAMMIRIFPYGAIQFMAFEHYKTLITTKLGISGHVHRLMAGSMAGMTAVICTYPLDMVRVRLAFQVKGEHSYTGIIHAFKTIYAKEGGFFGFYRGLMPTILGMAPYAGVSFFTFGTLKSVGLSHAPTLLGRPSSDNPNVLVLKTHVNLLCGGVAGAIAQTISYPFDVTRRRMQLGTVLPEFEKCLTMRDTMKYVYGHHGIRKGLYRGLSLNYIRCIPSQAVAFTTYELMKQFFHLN
Procedure, shortened: as §1

TTC3_C109 = molecular target: T6, TTC3_C109 (Homo sapiens, UniProt P53804)
T6 construct: endogenous in cells; host or cells: 22Rv1
Procedure, shortened: as §1

T1 sequence (Q9BZC7 whole entry): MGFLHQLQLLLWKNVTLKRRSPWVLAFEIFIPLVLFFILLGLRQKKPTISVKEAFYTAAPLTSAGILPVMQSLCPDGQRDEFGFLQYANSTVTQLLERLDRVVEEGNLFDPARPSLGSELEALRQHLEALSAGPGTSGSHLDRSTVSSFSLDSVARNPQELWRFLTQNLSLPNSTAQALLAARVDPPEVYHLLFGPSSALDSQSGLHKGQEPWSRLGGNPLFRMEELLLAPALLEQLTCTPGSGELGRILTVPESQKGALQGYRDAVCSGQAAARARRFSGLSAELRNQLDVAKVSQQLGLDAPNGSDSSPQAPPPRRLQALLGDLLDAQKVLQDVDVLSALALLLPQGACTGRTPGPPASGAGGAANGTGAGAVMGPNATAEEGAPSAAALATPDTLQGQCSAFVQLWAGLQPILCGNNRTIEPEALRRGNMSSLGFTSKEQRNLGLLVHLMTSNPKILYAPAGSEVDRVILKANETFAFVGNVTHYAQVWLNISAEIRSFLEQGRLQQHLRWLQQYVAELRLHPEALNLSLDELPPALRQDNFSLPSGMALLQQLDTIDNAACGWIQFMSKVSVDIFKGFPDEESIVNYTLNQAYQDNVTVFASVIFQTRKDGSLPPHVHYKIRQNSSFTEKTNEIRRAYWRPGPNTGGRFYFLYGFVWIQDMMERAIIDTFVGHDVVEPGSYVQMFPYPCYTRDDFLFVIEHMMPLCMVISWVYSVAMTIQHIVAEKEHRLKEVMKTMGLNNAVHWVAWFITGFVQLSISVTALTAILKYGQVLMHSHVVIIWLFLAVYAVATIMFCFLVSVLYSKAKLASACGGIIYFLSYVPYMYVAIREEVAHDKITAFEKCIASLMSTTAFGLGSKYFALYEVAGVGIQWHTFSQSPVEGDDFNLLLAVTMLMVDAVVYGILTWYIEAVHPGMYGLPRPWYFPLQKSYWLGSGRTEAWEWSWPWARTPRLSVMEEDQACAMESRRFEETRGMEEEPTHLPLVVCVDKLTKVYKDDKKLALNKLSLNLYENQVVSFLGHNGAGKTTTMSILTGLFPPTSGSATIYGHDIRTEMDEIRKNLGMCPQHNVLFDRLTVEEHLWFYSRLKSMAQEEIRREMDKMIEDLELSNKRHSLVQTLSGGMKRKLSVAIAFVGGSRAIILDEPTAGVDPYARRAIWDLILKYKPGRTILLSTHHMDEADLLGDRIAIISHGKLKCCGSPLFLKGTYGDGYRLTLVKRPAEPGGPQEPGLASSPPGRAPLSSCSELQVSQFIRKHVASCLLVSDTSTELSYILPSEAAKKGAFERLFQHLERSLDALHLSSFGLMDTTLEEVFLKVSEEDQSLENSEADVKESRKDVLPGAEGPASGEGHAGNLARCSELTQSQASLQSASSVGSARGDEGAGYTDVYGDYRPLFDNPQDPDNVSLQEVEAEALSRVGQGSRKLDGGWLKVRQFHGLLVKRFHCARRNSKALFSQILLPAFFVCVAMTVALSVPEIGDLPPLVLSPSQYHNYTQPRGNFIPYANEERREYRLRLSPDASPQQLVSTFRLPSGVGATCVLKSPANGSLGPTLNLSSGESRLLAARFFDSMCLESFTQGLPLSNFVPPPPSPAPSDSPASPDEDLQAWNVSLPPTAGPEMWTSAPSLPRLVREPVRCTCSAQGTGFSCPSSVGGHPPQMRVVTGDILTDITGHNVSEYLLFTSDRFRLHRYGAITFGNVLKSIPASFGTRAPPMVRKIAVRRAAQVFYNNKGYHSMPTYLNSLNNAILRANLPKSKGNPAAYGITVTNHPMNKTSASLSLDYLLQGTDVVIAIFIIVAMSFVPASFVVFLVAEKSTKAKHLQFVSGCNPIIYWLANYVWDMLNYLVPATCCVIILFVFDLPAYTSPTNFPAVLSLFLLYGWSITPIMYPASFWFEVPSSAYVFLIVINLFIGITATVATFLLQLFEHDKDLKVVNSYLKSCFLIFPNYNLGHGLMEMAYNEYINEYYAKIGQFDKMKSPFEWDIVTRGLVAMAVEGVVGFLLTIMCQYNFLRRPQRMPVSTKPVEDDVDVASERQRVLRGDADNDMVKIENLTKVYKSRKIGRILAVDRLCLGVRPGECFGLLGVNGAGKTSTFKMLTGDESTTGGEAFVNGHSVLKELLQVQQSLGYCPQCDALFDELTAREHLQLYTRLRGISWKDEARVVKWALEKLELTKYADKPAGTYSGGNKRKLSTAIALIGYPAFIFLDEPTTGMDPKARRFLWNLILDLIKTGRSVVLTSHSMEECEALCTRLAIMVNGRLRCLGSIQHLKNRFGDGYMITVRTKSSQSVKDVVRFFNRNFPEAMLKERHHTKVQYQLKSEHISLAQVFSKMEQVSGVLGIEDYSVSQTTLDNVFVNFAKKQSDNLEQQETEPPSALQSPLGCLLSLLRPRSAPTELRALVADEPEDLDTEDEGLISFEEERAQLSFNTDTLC
T6 sequence (P53804 whole entry): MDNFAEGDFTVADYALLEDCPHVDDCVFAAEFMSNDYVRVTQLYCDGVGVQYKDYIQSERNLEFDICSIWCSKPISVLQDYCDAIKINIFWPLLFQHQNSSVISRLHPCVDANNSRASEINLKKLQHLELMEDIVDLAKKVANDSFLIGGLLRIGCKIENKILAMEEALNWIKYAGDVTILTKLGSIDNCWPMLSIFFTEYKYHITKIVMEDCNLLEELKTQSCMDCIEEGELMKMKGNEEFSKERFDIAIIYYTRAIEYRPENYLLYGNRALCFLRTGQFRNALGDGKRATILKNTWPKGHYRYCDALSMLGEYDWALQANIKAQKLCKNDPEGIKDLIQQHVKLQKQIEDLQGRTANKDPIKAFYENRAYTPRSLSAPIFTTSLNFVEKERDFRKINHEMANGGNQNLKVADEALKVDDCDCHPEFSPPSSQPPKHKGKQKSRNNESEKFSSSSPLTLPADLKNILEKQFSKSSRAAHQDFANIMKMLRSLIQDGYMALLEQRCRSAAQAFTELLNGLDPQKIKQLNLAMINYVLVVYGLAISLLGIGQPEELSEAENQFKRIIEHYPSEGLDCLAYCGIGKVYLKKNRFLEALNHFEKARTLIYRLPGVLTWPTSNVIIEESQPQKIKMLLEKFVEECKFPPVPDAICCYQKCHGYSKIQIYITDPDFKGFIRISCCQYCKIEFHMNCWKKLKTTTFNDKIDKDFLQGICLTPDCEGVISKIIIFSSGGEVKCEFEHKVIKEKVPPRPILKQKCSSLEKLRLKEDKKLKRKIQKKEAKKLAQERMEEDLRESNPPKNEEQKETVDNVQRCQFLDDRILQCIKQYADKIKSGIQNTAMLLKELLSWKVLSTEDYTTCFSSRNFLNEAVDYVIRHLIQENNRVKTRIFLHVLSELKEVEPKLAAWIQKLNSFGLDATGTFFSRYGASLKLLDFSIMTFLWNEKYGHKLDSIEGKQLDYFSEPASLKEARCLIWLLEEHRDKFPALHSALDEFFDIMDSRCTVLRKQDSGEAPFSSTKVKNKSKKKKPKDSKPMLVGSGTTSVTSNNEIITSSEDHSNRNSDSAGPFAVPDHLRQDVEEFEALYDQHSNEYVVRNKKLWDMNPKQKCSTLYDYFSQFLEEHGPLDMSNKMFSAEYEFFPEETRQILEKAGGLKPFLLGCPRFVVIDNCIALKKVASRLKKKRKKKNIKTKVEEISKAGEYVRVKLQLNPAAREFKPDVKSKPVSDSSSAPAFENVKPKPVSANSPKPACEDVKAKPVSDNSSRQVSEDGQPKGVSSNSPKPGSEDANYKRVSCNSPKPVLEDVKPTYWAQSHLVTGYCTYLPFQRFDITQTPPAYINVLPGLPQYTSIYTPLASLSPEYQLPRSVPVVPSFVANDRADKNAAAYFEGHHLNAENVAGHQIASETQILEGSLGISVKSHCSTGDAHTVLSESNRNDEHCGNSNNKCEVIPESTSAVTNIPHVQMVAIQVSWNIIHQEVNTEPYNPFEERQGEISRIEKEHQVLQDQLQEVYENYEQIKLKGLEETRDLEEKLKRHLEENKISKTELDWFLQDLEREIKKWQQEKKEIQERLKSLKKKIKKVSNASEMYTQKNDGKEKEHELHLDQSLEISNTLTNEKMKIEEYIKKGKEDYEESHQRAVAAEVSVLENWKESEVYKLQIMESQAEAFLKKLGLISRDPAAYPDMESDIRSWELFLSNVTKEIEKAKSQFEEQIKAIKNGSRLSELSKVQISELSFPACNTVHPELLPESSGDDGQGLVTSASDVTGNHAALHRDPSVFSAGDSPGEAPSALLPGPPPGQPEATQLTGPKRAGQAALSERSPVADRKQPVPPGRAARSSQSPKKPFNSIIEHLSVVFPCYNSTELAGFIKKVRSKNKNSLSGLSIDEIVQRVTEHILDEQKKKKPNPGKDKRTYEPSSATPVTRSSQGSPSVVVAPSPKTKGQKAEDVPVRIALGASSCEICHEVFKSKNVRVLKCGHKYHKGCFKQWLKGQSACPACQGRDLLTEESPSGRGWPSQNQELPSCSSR

Row | % engagement ABCA2_C2385 (ABCA2_C2385) | % engagement CYP27B1_C163 (CYP27B1_C163) | % engagement DCUN1D4_C219 (DCUN1D4_C219) | % engagement PDE3B_C311 (PDE3B_C311) | % engagement SLC25A16_C311 (SLC25A16_C311) | % engagement TTC3_C109 (TTC3_C109) | Structure (SMILES)
1 | 42.5% | 73.5% | 33.5% | 49% | 32% | 4.5% | C=CC(=O)N1C[C@H](c2ccc(Br)cc2)[C@H]1C(=O)Nc1cccc2cccnc12 [MY-3A, (2S,3S)-1-acryloyl-3-(4-bromophenyl)-N-(quinolin-8-yl)azetidine-2-carboxamide]
2 | 78% | 89% | 82.5% | 58% | 37.5% | 54.5% | C=CC(=O)N1C[C@H](c2ccc(Br)cc2)[C@@H]1C(=O)Nc1cccc2cccnc12 [MY-1B, (2R,3S)-1-acryloyl-3-(4-bromophenyl)-N-(quinolin-8-yl)azetidine-2-carboxamide]
3 | 72.5% | 100% | −17% | 75.5% | 38.5% | 21.5% | C=CC(=O)N1C[C@H](c2ccc(Br)cc2)[C@H]1C(=O)Nc1cccc2cccnc12 [MY-3B, (2S,3S)-1-acryloyl-3-(4-bromophenyl)-N-(quinolin-8-yl)azetidine-2-carboxamide]
4 | 33% | 73% | 45.5% | 57.5% | 79% | 80.5% | C=CC(=O)N1C[C@@H](c2ccc(Br)cc2)[C@H]1C(=O)Nc1cccc2cccnc12 [MY-1A, (2S,3R)-1-acryloyl-3-(4-bromophenyl)-N-(quinolin-8-yl)azetidine-2-carboxamide]

Reference: patent US20250034216A1, “STEREOSELECTIVE COVALENT LIGANDS FOR ONCOGENIC AND IMMUNOLOGICAL PROTEINS” (The Scripps Research Institute, priority 2021, published 2025)
